Measured values as given in patent publication US5712300A, “Hydroxamic acid derivatives useful for the treatment of diseases related to connective tissue degradation” (priority 1997, dated 1998).
pKi: −log10 of the molar value.

Tests used:
Format in all cases: biochemical
[1] = target: T1, Collagenase (Homo sapiens, UniProt P03956); assay: MMP inhibition by particle concentration fluorescence technique (collagenase); conditions: pH 7.5; 15 min enzyme preincubation; substrate 1-3 h at room temperature; read-out: MMP Inhibition Constants, Collagenase Ki
T1 sequence (P03956 100-469): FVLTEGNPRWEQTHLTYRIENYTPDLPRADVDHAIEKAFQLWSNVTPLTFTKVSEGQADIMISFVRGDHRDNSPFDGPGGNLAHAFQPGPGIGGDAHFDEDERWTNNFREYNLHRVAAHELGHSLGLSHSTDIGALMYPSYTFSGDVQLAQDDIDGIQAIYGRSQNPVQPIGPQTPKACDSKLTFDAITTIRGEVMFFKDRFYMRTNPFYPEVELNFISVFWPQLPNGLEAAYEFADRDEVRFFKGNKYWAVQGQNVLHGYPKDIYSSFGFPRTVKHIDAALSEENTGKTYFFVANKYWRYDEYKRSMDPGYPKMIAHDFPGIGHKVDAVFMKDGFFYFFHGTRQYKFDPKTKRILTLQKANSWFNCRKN
Procedure: Inhibitory activity is evaluated in one or more of the MMP enzymes (stromelysin, gelatinase, and collagenase) in vitro using a particle concentration fluorescence techniques. An inhibitor binds to MMP enzymes prevents the degradation of a substrate of stromelysin, gelatinase, or collagenase. The substrate is attached with a fluorescein and a biotin. The intact substrate then binds to an avidin-coated particle via the biotin moiety. Once the particle is washed and dried, a fluorescent signal is generated since the fluorescent group is attached to the particle. Without an inhibitor present, the substrate is degraded by MMP enzymes and the fluorescein group is removed, therefore, no fluorescent signal can be detected. Testing compounds are dissolved in DMSO to the desired concentration, then the solutions are diluted to 1:5 with MMP buffer (50 mM Tris-HCl, pH 7.5; 150 mM NaCl; 0.02% NAN3). Serial two-fold dilutions of each compound are prepared. A concentrated, activated enzyme solution is transferred into each plate of the testing compounds, and the mixture is incubated at room temperature for 15 minutes. Thawed MMP substrate is then added into all plates, and the plates are incubate in the dark for 1-3 hours at room temperature. At this point, the substrate mixture is reacted with 0.1% avidin-coated polystyrene particles.

[2] = target: Gelatinase; assay: MMP inhibition by particle concentration fluorescence technique (gelatinase); conditions: pH 7.5; 15 min enzyme preincubation; substrate 1-3 h at room temperature; read-out: MMP Inhibition Constants, Gelatinase Ki
In short: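 Compound serially diluted two-fold in 50 mM Tris-HCl pH 7.5, 150 mM NaCl, preincubated 15 min with activated enzyme at room temperature. Fluorescein/biotin-tagged substrate then added for 1-3 hours in the dark. Intact substrate captured on avidin-coated particles; fluorescence signal indicates inhibition.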

[3] = target: Stromelysin (Homo sapiens, UniProt P08254); assay: MMP inhibition by particle concentration fluorescence technique (stromelysin); conditions: pH 7.5; 15 min enzyme preincubation; substrate 1-3 h at room temperature; read-out: MMP Inhibition Constants, Stromelysin Ki
Chain of Stromelysin (P08254 100-477): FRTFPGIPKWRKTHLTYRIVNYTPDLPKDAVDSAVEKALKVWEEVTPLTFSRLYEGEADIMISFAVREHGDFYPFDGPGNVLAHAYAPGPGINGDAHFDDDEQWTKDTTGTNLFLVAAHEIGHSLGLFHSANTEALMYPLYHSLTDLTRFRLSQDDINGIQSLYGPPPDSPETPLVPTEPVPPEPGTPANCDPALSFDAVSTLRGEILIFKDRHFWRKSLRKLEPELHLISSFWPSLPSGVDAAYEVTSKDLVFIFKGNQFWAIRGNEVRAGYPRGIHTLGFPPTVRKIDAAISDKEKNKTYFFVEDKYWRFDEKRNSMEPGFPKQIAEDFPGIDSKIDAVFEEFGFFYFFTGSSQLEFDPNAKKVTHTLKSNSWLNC
In short: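 Fluorescein- and biotin-labelled substrate captured on avidin particles after reaction; intact, uncleaved substrate retains fluorescence, so signal rises with inhibition. Activated enzyme incubated with two-fold serial compound dilutions 15 minutes at room temperature.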

SMILES | pKi [1] | pKi [2] | pKi [3]
CC(C)C[C@@]1(CC(=O)NO)CCN([C@@H](Cc2ccccc2)C(=O)Nc2ccccc2)C1=O [Example 39, [S-(R*,R*)]-N^3 -Hydroxy-3-(2-methylpropyl)-2-oxo-N^1-phenyl-α^1-(phenylmethyl)-1,3-pyrrolidinediacetamide] | 8.24 | 7.12 | 7.00
CC(C)C[C@@]1([C@@H](CCN2C(=O)c3ccccc3S2(=O)=O)C(=O)NO)CCN(CCc2ccccc2)C1=O (relative stereo) [Example 69, α-[2-(o-benzoic sulfimide)ethyl]-N-hydroxy-3-(2-methylpropyl)-2-oxo-1-(2-phenylethyl)3-pyrrolidineacetamide] | 5.92 | 6.30 | 6.67
CC(C)CC1(C(C)C(=O)NO)CCN(CCc2ccccc2)C1=O (stereo not drawn) [Example 3, N-Hydroxy-α-methyl-3-(2-methylpropyl)-2-oxo-1-(2-phenylethyl)-3-pyrrolidineacetamide] | 5.37 | 4.93 | 4.96
CNC(=O)[C@H](Cc1ccccc1)N1CC[C@@](CC(C)C)([C@H](CCNC(=O)c2ccccc2)C(=O)NO)C1=O [Example 53, [3S-[1(R*),3R*(R*)]]-α^3-[2-(Benzoylamino)ethyl]-N^3-hydroxy-N^1-methyl-3-(2-methylpropyl)-2-oxo-α^1-(phenylmethyl)-1,3-pyrrolidinediacetamide] | 9.16 | 8.97 | 7.98
CC(C)C[C@@]1(CC(=O)NO)CCN([C@@H](CCc2ccccc2)C(=O)NCc2ccccc2)C1=O [Example 48, [S-(R*,R*)]-N^3 -Hydroxy-3-(2-methylpropyl)-2-oxo-α^1-(2-phenylethyl)-N^1-(phenylmethyl)-1,3-pyrrolidinediacetamide] | 7.14 | 6.80 | 6.41
CC(C)C[C@@]1(CC(=O)NO)CCN([C@@H](Cc2ccccc2)C(=O)NCc2ccccn2)C1=O [Example 40, [S-(R*,R*)]-N^3 -Hydroxy-3-(2-methylpropyl)-2-oxo-α^1-(phenylmethyl)-N^1-(2-pyridinylmethyl)-1,3-pyrrolidinediacetamide] | 7.43 | 7.98 | 5.70
CC(C)C[C@@]1(CC(=O)NO)CCN([C@@H](Cc2ccccc2)C(=O)NCCc2ccccc2)C1=O [Example 31, [S-(R*,R*)]-N^3 -Hydroxy-3-(2-methylpropyl)-2-oxo-N^1-(2-phenethyl)-α^1-(phenylmethyl)-1,3-pyrrolidinediacetamide] | 7.02 | 7.71 | 6.29
CC(C)C[C@@]1([C@@H](CCN2C(=O)c3ccc([N+](=O)[O-])cc3C2=O)C(=O)NO)CCN(CCc2ccccc2)C1=O (relative stereo) [Example 11, N-Hydroxy-3-(2-methylpropyl)-α-[2-(5-nitro-1,3-dihydro-1,3-dioxo-2H-isoindol-2-yl)ethyl]-2-oxo-1-(2-phenylethyl)-3-pyrrolidineacetamide] | 7.14 | 6.30 | 5.99
CC(C)C[C@@]1([C@@H](CCN2Cc3ccccc3C2=O)C(=O)NO)CCN(CCc2ccccc2)C1=O (relative stereo) [Example 86, 1,3-Dihydro-N-hydroxy-α-[8-(2-methylpropyl)-2-oxo-1-(2-phenylethyl)-3-pyrrolidinyl]-1-oxo-2H-isoindole-2-butanamide] | 6.19 | 7.34 | 6.99
CC(C)C[C@@]1([C@@H](CCN2C(=O)c3ccc(N)cc3C2=O)C(=O)NO)CCN(CCc2ccccc2)C1=O (relative stereo) [Example 9, α-[2-(5-Amino-1,3-dihydro-1,3-dioxo-2H-isoindol-2-yl)ethyl]-N-hydroxy-3-(2-methylpropyl)-2-oxo-1-(2-phenylethyl)-3-pyrrolidineacetamide] | 4.84 | 6.11 | 6.04
CNC(=O)[C@H](Cc1ccccc1)N1CC[C@@](CCC(C)C)(CC(=O)NO)C1=O [Example 34, [S-(R*,R*)]-N^3 -Hydroxy-N^1-methyl-3-(3-methylbutyl)-2-oxo-α^1-(phenylmethyl)-1,3-pyrrolidinediacetamide] | 7.66 | 7.51 | 5.38
COc1ccc(S(=O)(=O)NCC[C@@H](C(=O)NO)[C@]2(CC(C)C)CCN(CCc3ccccc3)C2=O)cc1 (relative stereo) [Example 82, N-Hydroxy-α-[2-[[(4-methoxyphenyl)sulfonyl]amino]ethyl]-3-(2-methylpropyl)-2-oxo-1-(2-phenylethyl)-3-pyrrolidineacetamide] | 5.62 | 6.06 | 6.42
CC(C)C[C@@]1(CC(=O)NO)CCN([C@@H](Cc2ccccc2)C(=O)NCc2ccc(F)cc2)C1=O [Example 46, [S-(R*,R*)]-N^1-(4-Fluorophenylmethyl)-N^3-hydroxy-3-(2-methylpropyl)-2-oxo-α^1-(phenylmethyl)-1,3-pyrrolidinediacetamide] | 7.46 | 7.40 | 5.68

Other lines, results leading:

pKi [1] | pKi [2] | pKi [3] | SMILES
7.80 | 7.62 | 5.98 | CNC(=O)[C@H](Cc1ccccc1)N1CC[C@](CC(=O)NO)(CC(C)C)C1=O [Example 30, [S-(R*,R*)]-N^3 -Hydroxy-N^1-methyl-3-(2-methylpropyl)-2-oxo-α^1-(phenylmethyl)-1,3-pyrrolidinediacetamide]
8.63 | 8.64 | 5.74 | CC(C)C[C@@]1(CC(=O)NO)CCN([C@@H](Cc2ccccc2)C(=O)NC2CCN(Cc3ccccc3)CC2)C1=O [Example 43, [S-(R*,R*)]-N^3 -Hydroxy-3-(2-methylpropyl)-2-oxo-α^1-(phenylmethyl)-N^1-[1-(phenylmethyl)-4-piperdinyl]-1,3-pyrrolidinediacetamide]
6.64 | 8.31 | 7.04 | CC(C)C[C@@]1([C@@H](CCN2Cc3ccc(F)cc3C2=O)C(=O)NO)CCN(CCc2ccccc2)C1=O [Example 87, [R-(R*,S*)]-6-Fluoro-1,3-dihydro-N-hydroxy-α-[3-(2-methylpropyl)-2-oxo-1-(2-phenylethyl)-3-pyrrolidinyl]-1-oxo-2H-isoindole-2-butanamide]
5.64 | 5.45 | 4.57 | CC(C)CC1(CC(=O)NO)CCN(CCc2ccccc2)C1=O (stereo not drawn) [Example 1, N-Hydroxy-3-(2-methylpropyl)-2-oxo-1-(2-phenylethyl)-3-pyrrolidineacetamide]
7.37 | 7.64 | 7.08 | CC(C)C[C@@]1(CC(=O)NO)CCN([C@H](C(=O)Nc2ccccn2)C2CCCCC2)C1=O [Example 51, [S-(R*,R*)]-α^1 -Cyclohexyl-N^3-hydroxy-3-(2-methylpropyl)-2-oxo-N^1-2-pyridinyl-1,3-pyrrolidinediacetamide]
7.63 | 7.77 | 6.00 | CC(C)C[C@@]1(CC(=O)NO)CCN([C@@H](Cc2ccccc2)C(=O)NCc2ccncc2)C1=O [Example 45, [S-(R*,R*)]-N^3 -Hydroxy-3-(2-methylpropyl)-2-oxo-α^1-(phenylmethyl)-N^1-(4-pyridinylmethyl)-1,3-pyrrolidinediacetamide]
5.72 | 5.89 | 6.19 | CC(C)C[C@@]1([C@@H](CCN2C(=O)c3ccccc3C2=O)C(=O)NO)CCN(Cc2cccc(F)c2)C1=O (relative stereo) [Example 25]
5.30 | 7.44 | 6.67 | CC(C)C[C@@]1([C@@H](CCN2C(=O)c3ccccc3C2=O)C(=O)NO)CCN(CCCc2ccccc2)C1=O (relative stereo) [Example 67, α-[2-(1,3-Dihydro-1,3-dioxo-2H-isoindol-2-yl)ethyl]-N-hydroxy-3-(2-methylpropyl)-2-oxo-1-(3-phenylpropyl)-3-pyrrolidineacetamide]
6.12 | 6.68 | 5.72 | CC(C)C[C@@]1(CC(=O)NO)CCN([C@@H](Cc2ccccc2)C(=O)N2CCOCC2)C1=O [Example 55, [S-(R*,R*)]-N-Hydroxy-3-(2-methylpropyl)-1-[2-(4-morpholinyl)-2-oxo-1-(phenylmethyl)ethyl]-2-oxo-3-pyrrolidineacetamide]
